MIC and MBC data for 3 compounds are collected here from paper PMC9221509, “Discovery of a Novel Antimicrobial Peptide, Temporin-PKE, from the Skin Secretion of Pelophylax kl. esculentus, and Evaluation of Its Structure-Activity Relationships” (Biomolecules, 2022).

Values after ≈ are worked out from the molar mass of the structure shown.

Test in all cases: microbe, parasite or virus in culture
For experiment [1], the system named is P. aeruginosa (B004 V2S2 B). The format is cell-based, Pseudomonas aeruginosa. The note with it: Pseudomonas aeruginosa, clinical strain, 15 replicates in three independent assays. The protocol: (§1) The antimicrobial activities of peptides were evaluated against the Gram-positive bacteria, S. aureus (ATCC 6538), methicillin-resistant Staphylococcus aureus (MRSA) (NCTC 12493), Enterococcus faecalis (E. faecalis) (NCTC 12697); the Gram-negative bacteria, E. coli (ATCC CRM 8739), Klebsiella pneumoniae (K. pneumoniae) (ATCC 43816), Pseudomonas aeruginosa (P. aeruginosa) (ATCC CRM 9027); and the yeast, Candida albicans (C. albicans) (ATCC CRM 10231). Clinical isolates of MRSA (B042 V2E1 A), E. coli (ATCC BAA-2340), K. pneumoniae (ATCC BAA-1705), and P. aeruginosa (B004 V2S2 B) were also used to determine their antimicrobial activities. The suspension of microorganisms in the logarithmic growth phase with a specific final density (Gram-negative and Gram-positive bacteria: 5 × 10^5 CFU/mL; yeast: 1 × 10^6 CFU/mL) was incubated with different peptide concentrations from 1 µM to 512 µM at 37 °C for 24 h. PBS was used as the negative control, and norfloxacin and amphotericin B were selected as the positive control for bacteria and yeast, respectively. Since the Norfloxacin had weak activities against P. aeruginosa (B004 V2S2 B) and K. pneumoniae (ATCC BAA 1705), gentamicin was used as the positive control for these two bacterial strains. The absorbance of each well was obtained using a microplate reader (EL808, Biolise BioTek, Winooski, VT, USA) set at 550 nm wavelength. The MIC value was the lowest concentration of a peptide that inhibits visible bacterial growth. Once the MIC values were determined, an aliquot from the bacterial culture exposed to the peptide at or above its MIC value was inoculated on a Mueller Hinton agar (MHA) and was incubated at 37 for 18 h. The MBC value was the lowest concentration of a peptide that kills 99.9% of bacteria.

Experiment [2] relates to K. pneumoniae (ATCC BAA-1705). It is filed as cell-based, Klebsiella pneumoniae. The note with it: Klebsiella pneumoniae, ATCCBAA1705, clinical strain, 15 replicates in three independent assays. The protocol:
as §1

Experiment [3] relates to E. faecalis (NCTC 12697). It is filed as cell-based, Enterococcus faecalis. The following applies: Enterococcus faecalis, NCTC12697, 15 replicates in three independent assays. The protocol:
as §1

Experiment [4] relates to P. aeruginosa (ATCC CRM 9027). The format is cell-based, Pseudomonas aeruginosa. The note with it: Pseudomonas aeruginosa, 15 replicates in three independent assays. The protocol:
as §1

Experiment [5] deals with E. coli (ATCC CRM 8739). The format is cell-based, Escherichia coli. The note with it: Escherichia coli, 15 replicates in three independent assays. The protocol: as §1
For experiment [6], the system named is E. coli (ATCC BAA-2340). The format is cell-based, Escherichia coli. The note with it: Escherichia coli, ATCCBAA2340, clinical strain, 15 replicates in three independent assays. The protocol: as §1
The subject of experiment [7] is MRSA (NCTC 12493). It is filed as cell-based, methicillin-resistant Staphylococcus aureus. The note with it: Staphylococcus aureus, 15 replicates in three independent assays. The protocol: as §1
In experiment [8] the test system is MRSA (B042 V2E1 A). The format is cell-based, methicillin-resistant Staphylococcus aureus. The following applies: Staphylococcus aureus, MRSA, clinical strain, 15 replicates in three independent assays. The protocol:
as §1

For experiment [9], the system named is S. aureus (ATCC 6538). The format is cell-based, Staphylococcus aureus. The following applies: Staphylococcus aureus, ATCC6538, 15 replicates in three independent assays. The protocol:
as §1

In experiment [10] the test system is K. pneumoniae (ATCC 43816). It is filed as cell-based, Klebsiella pneumoniae. The note with it: Klebsiella pneumoniae, ATCC43816, 15 replicates in three independent assays. The protocol:
as §1

Experiment [11] concerns C. albicans (ATCC CRM 10231). The format is cell-based, Candida albicans. The note with it: 15 replicates in three independent assays. The protocol:
as §1

[12] abbreviates: 5 × 10^5 CFU/mL, 37 °C, 24 h, 1-512 µM, absorbance 550 nm, read-out: MIC.
Setting [13] is: aliquot plated on MHA, 18 h, kills 99.9%, read-out: MBC.

For the compound `CNC(C)C1CCC(N)C(OC2C(N)CC(N)C(OC3OCC(C)(O)C(NC)C3O)C2O)O1` (stereo not shown) [Gentamicin, reference compound], the figures for the MIC in experiment [1] (setting [12]) and in [2] (setting [12]) were 1 µM (≈ 0.478 µg/mL) and 2 µM (≈ 0.955 µg/mL), respectively. The MBC came to 1 µM (≈ 0.478 µg/mL) in [1] (setting [13]) and 2 µM (≈ 0.955 µg/mL) in experiment [2] (setting [13]).
For the compound `CCn1cc(C(=O)O)c(=O)c2cc(F)c(N3CCNCC3)cc21` [Norfloxacin, reference compound], the MIC amounted to 4 µM (≈ 1.28 µg/mL) in experiment [3] (setting [12]); 2 µM (≈ 0.639 µg/mL) in [4] (setting [12]); 1 µM (≈ 0.319 µg/mL) in experiment [5] (setting [12]); 2 µM (≈ 0.639 µg/mL) in experiment [6] (setting [12]); 2 µM (≈ 0.639 µg/mL) in experiment [7] (setting [12]); 2 µM (≈ 0.639 µg/mL) in [8] (setting [12]). In addition, the MIC in [9] (setting [12]) and in experiment [10] (setting [12]) was 2 µM (≈ 0.639 µg/mL) in each case. In addition, the MBC amounted to 4 µM (≈ 1.28 µg/mL) in experiment [3] (setting [13]); 2 µM (≈ 0.639 µg/mL) in experiment [4] (setting [13]); 1 µM (≈ 0.319 µg/mL) in experiment [5] (setting [13]); 2 µM (≈ 0.639 µg/mL) in experiment [6] (setting [13]); 2 µM (≈ 0.639 µg/mL) in [7] (setting [13]); 2 µM (≈ 0.639 µg/mL) in [8] (setting [13]). The MBC in experiment [9] (aliquot plated on MHA, 18 h, kills 99.9% of bacteria, read-out: MBC) was determined as 2 µM (≈ 0.639 µg/mL); in experiment [10] (setting [13]), 2 µM (≈ 0.639 µg/mL).
Take `C[C@@H]1[C@H](O)[C@@H](C)/C=C/C=C/C=C/C=C/C=C/C=C/C=C/[C@H](O[C@@H]2O[C@H](C)[C@@H](O)[C@H](N)[C@@H]2O)C[C@@H]2O[C@](O)(C[C@@H](O)C[C@@H](O)[C@H](O)CC[C@@H](O)C[C@@H](O)CC(=O)O[C@H]1C)C[C@H](O)[C@H]2C(=O)O` [amphotericin B, reference compound]: the MBC in experiment [11] (Candida albicans, aliquot plated on MHA, 18 h, kills 99.9%, read-out: MBC) is 4 µM (≈ 3.7 µg/mL). Moreover, the MIC in experiment [11] (yeast 1 × 10^6 CFU/mL, 37 °C, 24 h, 1-512 µM, absorbance 550 nm, read-out: MIC) came to 4 µM (≈ 3.7 µg/mL).
